Experimental data from patent publication US12117455B2, “Early detection marker for degenerative osteoarthritis with TRIM24-RIP3 axis” (AJOU UNIVERSITY INDUSTRY-ACADEMIC COOPERATION FOUNDATION, priority 2020, dated 2024).
Entries after “also recorded” stand apart in the source; their conditions may differ. Where a SMILES comes first, the peptide text is derived from it. The star is where a group is joined. Cbz = O=C(OCc1ccccc1)*

What was measured:
MLKL = MLKL protein levels in chondrocytes treated with proteasome or lysosome inhibitors (Western blotting); type: cell-based, mouse; settings: treatment for 6 hours
Protocol: (§1) Cells were lysed in an M2 buffer, and mouse tissues were lysed in a lysis buffer containing 50 mM Tris-HCl (pH 7.5), 150 mM NaCl, 50 mM NaF, 1% Tween 20, 0.2% NP-40, and a protease inhibitor. Equal amounts of cell extracts were separated using SDS-PAGE (6% stacking gel and 10% running gel) and analyzed through immunoblotting.

chondrocytes = assay: Cell viability / cytotoxicity by LDH assay in chondrocytes; type: cell-based, mouse; settings: for cytotoxic effects on chondrocytes (LDH release assay, Western blotting, phase-contrast microscopy): chondrocytes infected with Ad-C or Ad-Rip3
Protocol: Mouse articular chondrocytes were isolated from the cartilage of ICR mice on the 5th day after birth, enzymatically digested with protease and collagenase, and then maintained in DMEM (Capricorn Scientific GmbH: Hessen, Germany) supplemented with 10% FBS, 100 units/mL penicillin and 100 μg/mL streptomycin. On the 3rd day, cells (4.25×10^5 cells/well) were infected with adenovirus or treated with recombinant protein. Mlkl+/+ and Mlkl−/− MEFs were maintained in DMEM supplemented with 10% FBS and penicillin-streptomycin. Cell viability was assessed using a lactate dehydrogenase (LDH) colorimetric assay kit (Bio Vision (Milpitas, CA, USA)). Chondrocytes were dispensed into a 96-well dish (1.5×10^4 cells/well), cultured for 24 hours (5% CO2, 37° C.), and treated with various concentrations of AZ-628, selumetinib, and neratinib for 24 hours. The supernatant was analyzed using a microplate reader at 495 nm. Untreated (100% viable) and Triton X-100 treated (0% viable) samples were used for normalization. The viability was calculated as follows.

RIP3 = target: T1, RIP3 (Mus musculus, UniProt Q9QZL0); assay: RIP3 kinase activity / RIP3 phosphorylation by Western blotting in Ad-Rip3-infected chondrocytes; type: cell-based; settings: RIP3-overexpressing chondrocytes
T1 construct: host or cells: primary mouse articular chondrocytes (ICR mice), adenoviral infection
Protocol: (§2) Mouse articular chondrocytes were isolated from the cartilage of ICR mice on the 5th day after birth, enzymatically digested with protease and collagenase, and then maintained in DMEM (Capricorn Scientific GmbH: Hessen, Germany) supplemented with 10% FBS, 100 units/mL penicillin and 100 μg/mL streptomycin. On the 3rd day, cells (4.25×10^5 cells/well) were infected with adenovirus or treated with recombinant protein. Mlkl+/+ and Mlkl−/− MEFs were maintained in DMEM supplemented with 10% FBS and penicillin-streptomycin.
as §1

[1] = tested on: RIP3-overexpressing chondrocytes; assay: MMP3, MMP13 and COX2 expression (RT-PCR, qPCR, Western blotting) in Ad-Rip3-infected chondrocytes; type: cell-based, mouse
Protocol: as §2, §1
Total RNA was extracted from articular chondrocytes using a TRIzol reagent (Molecular Research Center (Cincinnati, OH, USA)) and then reverse-transcribed into complementary DNA (cDNA) using ImProm-II™ Transcriptase (Promega (Madison, WI, USA)), followed by amplification through PCR or qPCR using the primers shown in Table 2 below. qPCR was performed using SYBR premix Ex Taq (TaKaRa Bio., Kusatsu, Shiga, Japan), and the results thereof were normalized to Gapdh and represented as fold changes compared to controls.

T1 sequence (Q9QZL0 whole entry): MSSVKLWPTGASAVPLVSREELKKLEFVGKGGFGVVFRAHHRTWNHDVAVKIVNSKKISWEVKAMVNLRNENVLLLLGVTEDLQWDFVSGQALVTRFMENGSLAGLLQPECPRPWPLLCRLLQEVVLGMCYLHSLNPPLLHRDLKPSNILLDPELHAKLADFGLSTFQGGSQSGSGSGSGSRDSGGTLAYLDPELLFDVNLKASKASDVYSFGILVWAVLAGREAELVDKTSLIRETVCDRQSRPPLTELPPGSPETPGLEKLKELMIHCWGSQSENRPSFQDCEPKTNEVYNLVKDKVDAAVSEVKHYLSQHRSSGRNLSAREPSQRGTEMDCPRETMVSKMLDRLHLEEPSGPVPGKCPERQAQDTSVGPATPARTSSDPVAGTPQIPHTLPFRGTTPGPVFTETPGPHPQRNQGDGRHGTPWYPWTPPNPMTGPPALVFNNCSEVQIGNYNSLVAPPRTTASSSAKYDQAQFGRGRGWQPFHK

**Q.** With `CC(C)C[C@@H](C=O)NC(=O)[C@H](CC(C)C)NC(=O)[C@H](CC(C)C)NC(=O)OCc1ccccc1` [MG132] (Cbz-Leu-Leu-Leu-aldehyde) as the compound, how does the MLKL protein levels (MLKL) read?
**A.** did not change

**Q.** For `CC(C)S(=O)(=O)c1ccc2nccc(Nc3ccc4scnc4c3)c2c1` [GSK 872], which “cytotoxic effects on chondrocytes (LDH release assay, Western blotting, phase-contrast microscopy)” value (chondrocytes) is on record?
**A.** greater cytotoxic effects on chondrocytes than AZ-628

**Q.** What does the source list for `Cc1ccc(NC(=O)c2cccc(C(C)(C)C#N)c2)cc1Nc1ccc2ncn(C)c(=O)c2c1` [AZ-628]?
**A.** RIP3 (kinase) activity (RIP3): potent RIP3 kinase inhibitor; also recorded: attenuates RIP3 kinase activity; inhibition of osteoarthritis manifestations in RIP3-overexpressing chondrocytes ([1]; compared with selumetinib or neratinib): more effectively inhibited; Mmp3 and Cox2 expression (osteoarthritis-related gene expression) ([1]; qPCR, RIP3-overexpressing chondrocytes treated with RIP3 kinase inhibitors): decreased; also recorded: attenuated; cytotoxic effects in chondrocytes (LDH assay) (chondrocytes; at 2 μM, 24 hours): no toxicity; cytotoxic effects on chondrocytes (LDH release assay, Western blotting, phase-contrast microscopy) (chondrocytes): without chondrocyte toxicity

**Q.** How did the MLKL protein levels (MLKL) turn out when `CCN(CC)CCCC(C)Nc1ccnc2cc(Cl)ccc12` (stereo not drawn) [CQ, Chloroquine diphosphate] was run?
**A.** did not change

**Q.** How did the “cytotoxic effects on chondrocytes (LDH release assay, Western blotting, phase-contrast microscopy)” value (chondrocytes) turn out when HS-1371 was run?
**A.** greater cytotoxic effects on chondrocytes than AZ-628
